The subject of this experiment is catalytic monoclonal antibody 62C7 (anti-13.3), secreted by hybridoma 62C7, ATCC HB11703. The experiment in a line: Antibody-catalyzed dienone-phenol rearrangement of 7 to 8, product formation followed by reverse-phase HPLC. Type of experiment: biochemical, Balb/c mice. Here is the method: The KLH conjugates of haptens 13.3, 13.4, and 13.5 were then employed to inoculate Balb/c mice and antibodies were generated by standard protocols. (G. Kohler et al. Nature (1975), vol. 265, page 495.) Monoclonal antibodies were purified from ascites fluid by anion exchange chromatography and assayed against substrate 7 for production of the phenol product 8. Fourteen anti-13.3, twenty two anti-13.4, and twenty one anti-13.5 antibodies were assayed for catalysis of the rearrangement reaction converting dienone substrate 7 to phenol product 8. […] Assay condition employed […] in 100 mM NaCl, 50 mM of either bistris(bis(hydroxyethyl)-tris(hydroxymethyl)aminomethane) or 1,3-bis[tris (hydroxymethyl)aminopropane at 37° C. Product formation was followed by reverse-phase HPLC (Vydac C-18 218TP54 column (0.45×22 cm) at a flow rate of 1.5 milliliters/minute using 28% CH3 CN and 72% H2 O+0.1% CF3 COOH. Retention time tR for substrate 7 was 5.02 minutes. Retention time tR for product 8 was 7.14 minutes. The pD (98%) D2 O) values were obtained by adding 0.4 to the pH-electrode reading. […] Antibody 62C7 (anti-13.3) was characterized in detail.
FIG. 3 illustrates the pH-profile of the rearrangement reaction in the presence of catalytic antibody 62C7 (anti-13.3) and without. Background rates are determined in H2 O and in D2 O. The lines are caluclated from the following equations respectively:
kcat =kcat °+kcatH -[H3 O^30 ]^0.92 ;
kH2O =k°+kH +[H3 O^30 ]; kD2O
Accordingly, FIG. 3 illustrates both the antibody 62C7 catalyzed and the background reactions proceed via a hydronium ion catalyzed pathway, viz. kcatH+ =0.176/Mole second, H+ =1.51×10^-3 /Mole second. […] This is consistent with pre-equilibrium protonation of substrate 7 to form a first intermediate 10. This reaction probably reflects the spontaneous rearrangement of substrate 7 to the conjugate base of a second intermediate 12. This rearrangement reaction probably also occurs when substrate 7 is complexed with anti-13.3, i.e., second intermediate 12 is formed within the antibody complex. Importantly, a small inverse secondary isotope effect is observed in all cases at position C(3) of the dienone, viz., kcatH /kCatD =0.88 at pH=5.75, kH /kD =0.88-0.94 from pH=2.95 to 9.54. […] Accordingly, the rate determining step is the […]. (V. Vitullo et al., J. Am. Chem. Soc. (1974), vol. 94, page 3844.) Although this carbon hydrogen bond is ultimately broken to yield the product phenol 8, it is not involved in the rate determining step as this would have given rise to a large, normal isotope effect at that position.

Where [1] appears, read: pH 5.75, 37° C., 100 mM NaCl, 50 mM buffer.

The record followed here is patent publication US5500358A, “Antibody catalysis of cyclohexadienone rearrangments” (The Scripps Research Institute, priority 1994, dated 1996).

As for `[2H]C1=C(C)C(=O)C(C)=C([2H])C1(Cc1ccc(C(=O)NCCO)cc1)OC` [Compound 7-d2], for the setting “pH 5.75, 37° C.”, the kcat was determined as 1.37e-06 s⁻¹ and the kcat / kuncat is 80. Under setting [1], the Michaelis constant (Km) turned out to be 770 µM.

For `COC1(Cc2ccc(C(=O)NCCO)cc2)C=C(C)C(=O)C(C)=C1` [Compound 7], the “kcatH+ (hydronium ion catalyzed pathway of the antibody reaction)” value (from pH-profile, FIG. 3) worked out at 0.176 mol⁻¹ s⁻¹. Moreover, the Km runs as follows: (in D2O, pD 7.07, 37° C.) 1300 µM; under setting [1], 670 µM; (pH 7.07, 37° C., H2O) 1200 µM. Moreover, the kcat came to 1.25e-06 s⁻¹ (in D2O, pD 7.07, 37° C.); 1.22e-06 s⁻¹ (pH 5.75, 37° C.); 1.25e-06 s⁻¹ (pH 7.07, 37° C., H2O). Besides, the kcat / kuncat (in D2O, pD 7.07, 37° C.) was 95; the kcat / kuncat (pH 5.75, 37° C.) was 80; the kcat / kuncat (pH 7.07, 37° C., H2O) is given as 90. Also, the “kcatH /kCatD (secondary isotope effect at position C(3) of the dienone)” value (pH=5.75, 7 versus 7-d2) turned out to be 0.88.

What is called kcat is the maximal rate divided by the concentration of active sites. Usually Km stands for the concentration of substrate that gives half-maximal velocity.
